Reference: patent publication US8293774B2, “Optically active (R)-aryloxypropionic acid amides and herbicidal composition comprising same” (Kyung Nong Corporation, priority 2007, dated 2012)

Columns and labels:
Echinochloa oryzicola = assay: Foliage treatment with emulsions, dry rice field conditions (Test Example 2, Table 9); type: in vivo; conditions: 150 g a.i./ha; emulsion of Formulation Example 3; division stage 1~2; 20 days after foliage treatment
From the text: (§1) Seeds of rice (Nampyung rice) and barnyard grasses (Echinochloa oryzicola and Echinochloa crus-galli var. crus-galli) were placed in sandy loam of pots, covered with soil, and grown in the dry rice field conditions.
(§2) Rice (6˜6.5-leaf stage, plant height 33.2 cm) and barnyard grasses (Echinochloa oryzicola: division stage 1˜2, plant height 38.0 cm, Echinochloa crus-galli var. crus-galli: division stage 1˜2, plant height 44.1 cm) were subjected to a foliage treatment with emulsions prepared according to Formulation Example 3 by using compounds of Examples 1, 5 and 13 (purity: 99% or more), wherein the emulsions were sprayed to the plants at a dosage of the active compound of 150 g/ha.
(§3) The herbicidal effect on the barnyard grasses and harmful effect on the rice of the test compounds at 20 days and 30 days after the foliage treatment were visually evaluated as in Test Example 1 in comparison with the untreated control, and the results are shown in Table 9.

[1] = tested on: Echinochloa crus-galli var. crus-galli; assay: as above; type: in vivo; conditions: 150 g a.i./ha; emulsion of Formulation Example 3; division stage 1~2; 20 days after foliage treatment
From the text: as §1, §2, §3

[2] = tested on: GLXMA (Glycine max(L.) MERR, soy bean); assay: Weed control test, foliage treatment (Test Example 1, Table 7); conditions: in vivo
[3] = tested on: TRZAW (Tritium aestivum L., wheat); assay: as above; conditions: in vivo
rice (Nampyung rice) = assay: Foliage treatment with emulsions, dry rice field conditions, harmful effect on rice (Test Example 2, Table 9); type: in vivo; conditions: 6~6.5-leaf stage, 150 g a.i./ha, emulsion; for Harmful effect, 20 days: 20 days after foliage treatment; for Harmful effect, 30 days: 30 days after foliage treatment
From the text: as §1

Rice = assay: Weed control test, 4-leaf stage plants (Test Example 1, Table 8); conditions: in vivo
Protocol: (§4) Seeds of rice, wheat, soy bean, barley, corn, common sorgum, barnyard grass, large crabgrass, creek grass, green foxtail and fall panicum were placed in sandy loam in 600 cm^2 pots and covered with soil. After keeping the pots in a greenhouse at 20 to 30° C. allowing growth of the plants to the 3-leaf stage of the barnyard grass, 2,000 l/ha of an emulsion obtained by diluting with water a mixture of 1 part by weight of a test compound, 5 parts by weight of acetone and 1 part by weight of an emulsifying agent (Tween 80, Junsei) was applied to the surface of the foliage of the plants. The plant damage at 10 days and 20 days after the foliage treatment was visually evaluated from the level of 1 to 100% by comparison with the untreated control: […]

Barnyard grass = assay: as above; type: in vivo, Echinoch crus-galli Beauv. var. caudata Kitagawa
From the text: as §4, with “[…],” for “After keeping the pots in a greenhouse at 20 to 30° C. allowing growth of the plants to the 3-leaf stage of the barnyard grass,”

[4] = tested on: PANDI (Panium dichotomiflorum Michx, fall panicum); assay: Weed control test, foliage treatment (Test Example 1, Table 7); type: in vivo; conditions: Panicum dichotomiflorum, foliar, read-out: Plant damage (herbicidal activity), visually evaluated, PANDI; for pest or weed control at 25 g/ha: 0.025 kg/ha; for pest or weed control at 100 g/ha: 0.1 kg/ha; for pest or weed control at 200 g/ha: 0.2 kg/ha
Summary of the method: (§5)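 Each compound was mixed with acetone and emulsifier (1:5:1 by weight), diluted in water, and sprayed over the foliage at 2,000 l/ha, timed to the 3-leaf stage of barnyard grass. Growth conditions were sandy loam in a greenhouse at 20 to 30° C. Damage ratings of 1 to 100% against untreated plants followed at days 10 and 20.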

[5] = tested on: ECHOG (Echinoch crus-galli Beauv. var. caudata Kitagawa, barnyard grass); assay: as above; type: in vivo; conditions: Echinochloa crus-galli, foliar, 3-leaf stage, read-out: Plant damage (herbicidal activity), visually evaluated, ECHOG; for pest or weed control at 25 g/ha: 0.025 kg/ha; for pest or weed control at 100 g/ha: 0.1 kg/ha; for pest or weed control at 200 g/ha: 0.2 kg/ha
Summary of the method: as §5

[6] = tested on: ZEAMX (Zea mays L., corn); assay: as above; type: in vivo; conditions: Zea mays, foliar, read-out: Plant damage (herbicidal activity), visually evaluated, ZEAMX; for plant injury at 25 g/ha: 0.025 kg/ha; for plant injury at 100 g/ha: 0.1 kg/ha; for plant injury at 200 g/ha: 0.2 kg/ha
Summary of the method: as §5

[7] = tested on: DIGSA (Digitaria Sanguinalis (L.) SCOP, large crabgrass); assay: as above; type: in vivo; conditions: Digitaria sanguinalis, foliar, read-out: Plant damage (herbicidal activity), visually evaluated, DIGSA; for pest or weed control at 25 g/ha: 0.025 kg/ha; for pest or weed control at 100 g/ha: 0.1 kg/ha; for pest or weed control at 200 g/ha: 0.2 kg/ha
Summary of the method: as §5

[8] = tested on: ARTHIS (Arthraxon hispidus (Thunb.) Makino, creek grass); assay: as above; type: in vivo; conditions: Arthraxon hispidus, foliar, read-out: Plant damage (herbicidal activity), visually evaluated, ARTHIS; for pest or weed control at 25 g/ha: 0.025 kg/ha; for pest or weed control at 100 g/ha: 0.1 kg/ha; for pest or weed control at 200 g/ha: 0.2 kg/ha
Summary of the method: as §5

[9] = tested on: SORBI (Andropogon sorghum, common sorgum); assay: as above; type: in vivo; conditions: Sorghum bicolor, foliar, read-out: Plant damage (herbicidal activity), visually evaluated, SORBI; for pest or weed control at 25 g/ha: 0.025 kg/ha; for pest or weed control at 100 g/ha: 0.1 kg/ha; for pest or weed control at 200 g/ha: 0.2 kg/ha
Summary of the method: as §5

[10] = tested on: SETVIR (Setaria viridis (L.) Beauv, green foxtail); assay: as above; type: in vivo; conditions: Setaria viridis, foliar, read-out: Plant damage (herbicidal activity), visually evaluated, SETVIR; for pest or weed control at 25 g/ha: 0.025 kg/ha; for pest or weed control at 100 g/ha: 0.1 kg/ha; for pest or weed control at 200 g/ha: 0.2 kg/ha
Summary of the method: as §5

[11] = tested on: ORYSA (Oryza sativa cv. Dongjin, rice); assay: as above; conditions: in vivo

Structure (SMILES) | Plant damage (herbicidal activity), visually evaluated, GLXMA [2] [%] | Plant damage (herbicidal activity), visually evaluated, TRZAW [3] [%] | Plant damage (herbicidal activity), visually evaluated, Barnyard grass (Barnyard grass; 0.025 kg/ha) [%] | Plant damage (herbicidal activity), visually evaluated, Barnyard grass (Barnyard grass; 0.05 kg/ha) [%] | Plant damage (herbicidal activity), visually evaluated, Barnyard grass (Barnyard grass; 0.1 kg/ha) [%] | Plant damage (herbicidal activity), visually evaluated, Barnyard grass (Barnyard grass; 0.4 kg/ha) [%] | pest or weed control at 25 g/ha [4] [%] | pest or weed control at 100 g/ha [4] [%] | pest or weed control at 200 g/ha [4] [%] | pest or weed control at 25 g/ha [5] [%] | pest or weed control at 100 g/ha [5] [%] | pest or weed control at 200 g/ha [5] [%] | plant injury at 25 g/ha [6] [%] | plant injury at 100 g/ha [6] [%] | plant injury at 200 g/ha [6] [%] | pest or weed control at 25 g/ha [7] [%] | pest or weed control at 100 g/ha [7] [%] | pest or weed control at 200 g/ha [7] [%] | pest or weed control at 25 g/ha [8] [%] | pest or weed control at 100 g/ha [8] [%] | further results
C[C@@H](Oc1ccc(Oc2nc3ccc(Cl)cc3o2)cc1)C(=O)Nc1nc2ccccc2s1 [Example 5, (R)-2-[4-(6-chloro-2-benzoxazolyloxy)phenoxy]propionic acid-N-(2-benzothiazolyl)amide] | 0 | 0 | 70 | 95 | 100 | 100 | 90 | 100 | 100 | 95 | 100 | 100 | 60 | 100 | 100 | 95 | 100 | 100 | 40 | 100 | Herbicidal effect (0~100), 20 days, Echinochloa oryzicola (Echinochloa oryzicola): 100%; Herbicidal effect (0~100), 20 days, Echinochloa crus-galli var. crus-galli [1]: 100%; Harmful effect, 20 days (rice (Nampyung rice)): 0%; Harmful effect, 30 days (rice (Nampyung rice)): 0%; Plant damage (herbicidal activity), visually evaluated, Rice (Rice): 0%; pest or weed control at 200 g/ha [8]: 100%; pest or weed control at 25 g/ha [9]: 25%; pest or weed control at 100 g/ha [9]: 100%; pest or weed control at 200 g/ha [9]: 100%; pest or weed control at 25 g/ha [10]: 80%; pest or weed control at 100 g/ha [10]: 100%; pest or weed control at 200 g/ha [10]: 100%
COc1ccc2nc(NC(=O)[C@@H](C)Oc3ccc(Oc4nc5ccc(Cl)cc5o4)cc3)sc2c1 [Example 13, (R)-2-[4-(6-chloro-2-benzoxazolyloxy)phenoxy]propionic acid-N-(6-methoxy-2-benzothiazolyl)amide] | 0 | 0 | 20 | 50 | 70 | 100 | 20 | 100 | 100 | 70 | 100 | 100 | 40 | 100 | 100 | 75 | 100 | 100 | 50 | 100 | Herbicidal effect (0~100), 20 days, Echinochloa oryzicola (Echinochloa oryzicola): 70%; Herbicidal effect (0~100), 20 days, Echinochloa crus-galli var. crus-galli [1]: 80%; Harmful effect, 20 days (rice (Nampyung rice)): 10%; Harmful effect, 30 days (rice (Nampyung rice)): 0%; pest or weed control at 200 g/ha [8]: 100%; pest or weed control at 25 g/ha [9]: 30%; pest or weed control at 100 g/ha [9]: 100%; pest or weed control at 200 g/ha [9]: 100%; pest or weed control at 25 g/ha [10]: 50%; pest or weed control at 100 g/ha [10]: 100%; pest or weed control at 200 g/ha [10]: 100%
COc1ccc2nc(N(C)C(=O)[C@@H](C)Oc3ccc(Oc4nc5ccc(Cl)cc5o4)cc3)sc2c1 [Example 14, (R)-2-[4-(6-chloro-2-benzoxazolyloxy)phenoxy]propionic acid-N-(6-methoxy-2-benzothiazolyl)-N-methyl amide] | 0 | 0 | 0 | 0 | 10 | 50 | 0 | 20 | 70 | 0 | 20 | 70 | 0 | 10 | 90 | 0 | 20 | 70 | 0 | 20 | Plant damage (herbicidal activity), visually evaluated, ORYSA [11]: 0%; Plant damage (herbicidal activity), visually evaluated, Rice (Rice): 0%; pest or weed control at 200 g/ha [8]: 50%; pest or weed control at 25 g/ha [9]: 10%; pest or weed control at 100 g/ha [9]: 50%; pest or weed control at 200 g/ha [9]: 90%; pest or weed control at 25 g/ha [10]: 0%; pest or weed control at 100 g/ha [10]: 20%; pest or weed control at 200 g/ha [10]: 50%
